Test system: hepatocytes
Assay: Seq-Well scRNA-Seq of hepatocytes after APAP overdose (signature scores, DEG vs untreated)
Format: in vivo, mouse

For `CC(=O)Nc1ccc(O)cc1` [APAP, acetaminophen], the “Cp avg_logFC” value (APAP composite vs UT) was 0.4362, the “Cyb5 avg_logFC” value (APAP composite vs UT) was −0.7102 and the “Cyp4a10 avg_logFC” value (APAP composite vs UT) was 1.135. The “Cyp4a14 avg_logFC” value (APAP composite vs UT) was 1.704, the “Fabp1 avg_logFC” value (APAP composite vs UT) was −1.016 and the “Fga avg_logFC” value (APAP composite vs UT) was 0.8285. The “Fgb avg_logFC” value (APAP composite vs UT) was 0.745, the “Fgg avg_logFC” value (APAP composite vs UT) was 0.6805 and the “Fgl1 avg_logFC” value (APAP composite vs UT) was 0.8649. The “Fth1 avg_logFC” value (APAP composite vs UT) was 0.3784, the “Gclc avg_logFC” value (APAP composite vs UT) was 1.903 and the “Gm13775 avg_logFC” value (APAP composite vs UT) was −1.078. For the same compound, the “Gm15564 avg_logFC” value (APAP composite vs UT) was 1.821, the “Gm24601 avg_logFC” value (APAP composite vs UT) was 0.9844 and the “Gm26924 avg_logFC” value (APAP composite vs UT) was 1.419. For the same compound, the “Gpx1 avg_logFC” value (APAP composite vs UT) was −0.7686, the “Grip2 avg_logFC” value (APAP composite vs UT) was 0.8779 and the “Hbb-bs avg_logFC” value (APAP composite vs UT) was 2.862. The “Hilpda avg_logFC” value (APAP composite vs UT) was 0.7786, the “Hmgcs2 avg_logFC” value (APAP composite vs UT) was 0.6293 and the “Hmox1 avg_logFC” value (APAP composite vs UT) was 1.348. For the same compound, the “Hrg avg_logFC” value (APAP composite vs UT) was 0.5189, the “Igfbp4 avg_logFC” value (APAP composite vs UT) was 0.4353 and the “Lars2 avg_logFC” value (APAP composite vs UT) was 1.711. The “Mat1a avg_logFC” value (APAP composite vs UT) was 1, the “Mfsd2a avg_logFC” value (APAP composite vs UT) was 0.6661 and the “Mt1 avg_logFC” value (APAP composite vs UT) was 2.388. For the same compound, the “Mt2 avg_logFC” value (APAP composite vs UT) was 2.063, the “Mup3 avg_logFC” value (APAP composite vs UT) was −0.8062 and the “Mup5 avg_logFC” value (APAP composite vs UT) was −1.371. For the same compound, the “Mup6 avg_logFC” value (APAP composite vs UT) was −2.032, the “Mup7 avg_logFC” value (APAP composite vs UT) was −1.116 and the “Mup9 avg_logFC” value (APAP composite vs UT) was −2.004. The “Mup11 avg_logFC” value (APAP composite vs UT) was −3.214, the “Mup12 avg_logFC” value (APAP composite vs UT) was −1.27 and the “Mup15 avg_logFC” value (APAP composite vs UT) was −1.316. For the same compound, the “Mup16 avg_logFC” value (APAP composite vs UT) was −1.602, the “Mup17 avg_logFC” value (APAP composite vs UT) was −2.354 and the “Mup18 avg_logFC” value (APAP composite vs UT) was −1.727. The “Mup19 avg_logFC” value (APAP composite vs UT) was −2.396, the “Mup21 avg_logFC” value (APAP composite vs UT) was −1.008 and the “Ndrg2 avg_logFC” value (APAP composite vs UT) was 0.4122. For the same compound, the “Nudt7 avg_logFC” value (APAP composite vs UT) was −1.564, the “Ppl avg_logFC” value (APAP composite vs UT) was 0.8798 and the “Rbp4 avg_logFC” value (APAP composite vs UT) was 0.3014. The “Retsat avg_logFC” value (APAP composite vs UT) was 0.6813, the “S100a8 avg_logFC” value (APAP composite vs UT) was 1.128 and the “S100a9 avg_logFC” value (APAP composite vs UT) was 1.343. The “Saa1 avg_logFC” value (APAP composite vs UT) was −1.078, the “Selenbp2 avg_logFC” value (APAP composite vs UT) was −1.19 and the “Sephs2 avg_logFC” value (APAP composite vs UT) was 0.89. For the same compound, the “Sepp1 avg_logFC” value (APAP composite vs UT) was 0.4486, the “Serpina1a avg_logFC” value (APAP composite vs UT) was −0.6752 and the “Serpina1e avg_logFC” value (APAP composite vs UT) was −0.662. For the same compound, the “Serpina1d avg_logFC” value (APAP composite vs UT) was −0.494, the “Slco1a4 avg_logFC” value (APAP composite vs UT) was 0.5526 and the “Snord118 avg_logFC” value (APAP composite vs UT) was 0.6174. The “Srxn1 avg_logFC” value (APAP composite vs UT) was 1.878, the “Sult1a1 avg_logFC” value (APAP composite vs UT) was 0.5605 and the “Tnfrsf12a avg_logFC” value (APAP composite vs UT) was 1.118. The “Ttpa avg_logFC” value (APAP composite vs UT) was 0.6012, the “Ttr avg_logFC” value (APAP composite vs UT) was −0.5306 and the “mt-Co1 avg_logFC” value (APAP composite vs UT) was −1.433. For the same compound, the “mt-Co2 avg_logFC” value (APAP composite vs UT) was −1.397, the “mt-Cytb avg_logFC” value (APAP composite vs UT) was −1.571 and the “mt-Nd1 avg_logFC” value (APAP composite vs UT) was −1.42. The “mt-Nd2 avg_logFC” value (APAP composite vs UT) was −1.242, the “mt-Nd4 avg_logFC” value (APAP composite vs UT) was −1.957 and the “mt-Nd5 avg_logFC” value (APAP composite vs UT) was −1.384. For the same compound, the “mt-Rnr1 avg_logFC” value (APAP composite vs UT) was −0.4854, the “mt-Rnr2 avg_logFC” value (APAP composite vs UT) was −0.7783 and the “n-R5-8s1 avg_logFC” value (APAP composite vs UT) was 1.253. For the same compound, the “1-Mar logFC” value (APAP vs UT) was −0.4778, the “2-Mar logFC” value (APAP vs UT) was −0.5599 and the “1110008F13Rik logFC” value (APAP vs UT) was −0.4553. For the same compound, the “1600014C10Rik logFC” value (APAP vs UT) was −0.4982, the “3110043O21Rik logFC” value (APAP vs UT) was 0.2694 and the “8430408G22Rik logFC” value (APAP vs UT) was −0.5021. For the same compound, the “AA474408 logFC” value (APAP vs UT) was 0.4364, the “Aadac logFC” value (APAP vs UT) was −0.62 and the “Abca1 logFC” value (APAP vs UT) was 0.7245. The “Abhd2 logFC” value (APAP vs UT) was 0.4844, the “Acox1 logFC” value (APAP vs UT) was 0.2752 and the “Acsl4 logFC” value (APAP vs UT) was 0.3147. For the same compound, the “Acss2 logFC” value (APAP vs UT) was −0.6201, the “Adh4 logFC” value (APAP vs UT) was −0.5269 and the “Adh5 logFC” value (APAP vs UT) was −0.4914. The “Adh6-ps1 logFC” value (APAP vs UT) was −0.4185, the “Adipor2 logFC” value (APAP vs UT) was −0.4738 and the “Agmat logFC” value (APAP vs UT) was −0.4718. The “Ak3 logFC” value (APAP vs UT) was 0.289, the “Akr1c14 logFC” value (APAP vs UT) was −0.5186 and the “Akr1c20 logFC” value (APAP vs UT) was −0.5542. For the same compound, the “Akr1e1 logFC” value (APAP vs UT) was −0.2582, the “Alas1 logFC” value (APAP vs UT) was −0.4898 and the “Alb logFC” value (APAP vs UT) was 0.4203. For the same compound, the “Alcam logFC” value (APAP vs UT) was 0.3238, the “Aldh1a1 logFC” value (APAP vs UT) was −0.4788 and the “Aldh3a2 logFC” value (APAP vs UT) was −0.8342. The “Aldh8a1 logFC” value (APAP vs UT) was −0.6837 and the “Aox3 logFC” value (APAP vs UT) was −0.3333.

Reference: US20230053540A1, “TREATMENT OF LIVER INJURY” (Massachusetts Institute of Technology, priority 2019, published 2023)
